The source of these data is PubChem BioAssay AID624258 (Broad Institute, 2012).

Calls of active or inactive are those of the source. How the calls were made is not given here.

In this test the test system is S. cerevisiae SKN7-toxicity growth rescue, plate reader. Briefly: Yeast SKN7 toxicity growth rescue counterscreen, Saccharomyces cerevisiae, plate reader, dose confirmatory (AID 624258).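 Further: growth read after three days of incubation at 30 °C.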 In general terms: A counterscreen serves to expose hits that act by an unwanted route or on another target.
For `COC(=O)c1ccc(N2C(=O)CC(N(C)CCc3ccc(OC)c(OC)c3)C2=O)cc1` (configuration not stated), the AC40 is 8.6 µM.

For `CNC1=C(N(C(C)=O)c2ccc(Br)cc2)C(=O)c2ccccc2C1=O`, the AC40 is 15.8 µM. The value for `O=C(CCCNC(=O)c1ccc(Cl)cc1)OCc1cccc(Br)c1` was > 19.5 µM (inactive); that for `CC1CCc2sc(-c3n[nH]c(=S)o3)cc2C1` (configuration not stated) was 0.663 µM; that for `O/N=C/c1cc(Br)ccc1OCc1cccc(F)c1` was 5.83 µM.

Consider `CCCCC(=O)NC(c1ccc(N(C)C)cc1)c1ccc2cccnc2c1O` (configuration not stated), for which the AC40 is 0.754 µM. Regarding `Cc1cc(C)c(OCC(=O)Nc2nc(-c3ccccn3)cs2)c(C)c1`, the AC40 was 0.562 µM. Then `CSC1=NC(=O)/C(=C/c2ccc(SC)cc2)S1`, with 2.61 µM; and `O=C(CSc1ccc(-c2ccccn2)nn1)N1CCCc2ccccc21`, with 4.75 µM. Then `CC1=C(C)/C(=N\OS(=O)(=O)c2ccc(C)cc2)C=CC1=O`, with 1.11 µM; and `N#C/C(=C\c1cccnc1)c1ccc([N+](=O)[O-])cc1`, with 16.7 µM. Then `Cc1ccc(NC2=C(NC(=O)c3ccccc3)C(=O)c3ccccc3C2=O)cc1Cl`, with 4.15 µM; and `COc1cc2c(cc1/C=C/[N+](=O)[O-])OCO2`, with 6.54 µM; and `Cc1ccccc1OCc1nc2ccccc2n1C`, with 7.54 µM. For `O=S(=O)(Nc1nc2ccccc2nc1N1CCN(c2ccccn2)CC1)c1ccc(Cl)cc1`, the AC40 was 0.818 µM.

As for `O=[N+]([O-])c1cccc(-c2cc(-c3cc(Br)ccc3O)[nH]n2)c1`, the AC40 is 8.39 µM. The value for `Cc1ccc(Sc2ccc([N+](=O)[O-])cc2[N+](=O)[O-])nc1` was 10.1 µM; that for `Cc1cccc(C(=O)NC(=S)NNC(=O)Cc2ccccc2)c1` was 1.22 µM. Then `CCOC(=O)c1cccc2c1-c1ccccc1/C2=N/O`, with 1.91 µM; and `COc1cccc(/C=N/Nc2ncc(C(F)(F)F)cc2Cl)c1O`, with 1.11 µM. The value for `COc1ccc2c(c1)OC[C@H]1[C@H]2N2C(=O)c3cc(OC)ccc3NC(=O)[C@@]2(C)[C@H]1c1ccccc1` was 9.31 µM; that for `Nc1[nH]c(=O)ncc1F` was 1.83 µM; that for `Cc1csc(NC(=S)Nc2cccc(Cl)c2)n1` was 11.6 µM. As to `Cc1ccc2c(C)c3ccc4ccccc4c3c[n+]2c1`, the AC40 is 0.247 µM. Then `CCCc1cc(-c2n[nH]c(=S)n2-c2cccc(C)c2)cs1`, with 17 µM; and `CO/N=C/c1ccc(Oc2ccc([N+](=O)[O-])cc2[N+](=O)[O-])c(OC)c1`, with 18.5 µM. Then `O=[N+]([O-])c1cc(Cl)ccc1Sc1ccccn1`, with 17.3 µM. Then `Cn1nc(C(F)(F)F)c(C#N)c1N1CCN(c2ccccc2)CC1`, with 17.6 µM. As to `c1ccc(Nc2cccc(Nc3ccccc3)c2)cc1`, the AC40 is 0.766 µM.

`COC(=O)c1cc(Sc2cccc(Cl)c2Cl)ccn1`: the AC40 was 14.7 µM. Then `Cc1nn(CCO)c(N)c1C1(O)C(=O)Nc2c(Cl)cc(Cl)cc21` (configuration not stated), with 18.5 µM; and `COc1cc(OC)cc(N2C(=O)CC(N3CCC(C(=O)N4CCCCC4)CC3)C2=O)c1` (configuration not stated), with 13.7 µM. With `O=C(NCCN1CCN(c2cccc(Cl)c2)CC1)c1ccc(CSc2nc3ccncc3[nH]2)cc1`, the AC40 is 8.35 µM. On to `CC1S/C(=C(\C#N)C(=O)NCc2ccco2)N(Cc2ccco2)C1=O` (configuration not stated), for which the AC40 was > 19.5 µM (inactive). The value for `Oc1c(C(Nc2cccc(C(F)(F)F)c2)c2cccnc2)ccc2cccnc12` (configuration not stated) was 2.73 µM; that for `Cc1n[nH]c(C)c1N=Nc1ccc(Br)cc1` was 1.76 µM; that for `O=C(O)c1ccccc1NS(=O)(=O)c1cccc(-n2sc3ccccc3c2=O)c1` was 4.77 µM.

For `O=[N+]([O-])c1ccc(O)c(/C=N/Nc2ccccn2)c1`, the AC40 is 1.42 µM. Then `O=c1nc(N/N=C/c2ccccn2)cn[nH]1`, with 4.69 µM.

As for `Cc1ccc(Nc2c(-c3ccccc3O)nc3cnccn23)cc1`, the AC40 was 8.08 µM. Then `CCCCCCCCNC(=O)/C(C#N)=C/c1ccccc1[N+](=O)[O-]`, with 3.17 µM; and `CCOC(=O)N1CCN(S(=O)(=O)c2ccc(C(=O)NNc3nc4ccc(Cl)cc4s3)cc2)CC1`, with 6.89 µM. Then `Cc1ccc2oc(-c3ccccc3)c(C(=O)O)c(=O)c2c1`, with 1.26 µM; and `Oc1ccccc1N=Cc1ccc[nH]1`, with > 0.75 µM (inactive); and `COc1ccc(-c2cc(C(=O)N3CCN(c4ccccc4F)CC3)c3ccccc3n2)c(OC)c1`, with > 19.5 µM (inactive). Then `O=C1c2ccccc2NC(c2ccc(-c3ccc(F)cc3)o2)N1O` (configuration not stated), with 14 µM; and `Cc1nn(-c2nnc(NCc3ccccc3)nn2)c(C)c1Br`, with 6.94 µM.

Take `Cc1ccc(NC2=CC(=O)C(=O)c3ccccc32)c(C)c1`: the AC40 is 18.7 µM. The value for `O=c1[nH]cc(F)c(=O)[nH]1` was 9.32 µM; that for `COc1cc(/C=C2\SC(=S)N(NS(=O)(=O)c3ccc(C)cc3)C2=O)ccc1O` was 1.64 µM. The value for `C/C(=N\NC(=S)NC1CCCCC1)c1c(F)cccc1F` was 3.39 µM. Then `COc1ccc(C(c2c(O)ccc3ccccc23)N2CCOCC2)c(OC)c1` (configuration not stated), with 2.35 µM. For `O=C(CSc1nnc(-c2ccccc2O)n1Cc1ccccc1)NNC(=O)c1ccccc1O`, the AC40 is 6.84 µM.

`CSC(=S)N/N=C/c1ccccc1`: the AC40 was 3.19 µM. Then `Cc1ccc(COc2ccc(Br)cc2/C=N/O)cc1`, with 1.27 µM; and `CSc1cccc(NC(=O)/C=C/c2cccc(Cl)c2)c1`, with 4.52 µM. Then `CCOC(=O)/C(=C/c1ccc(OC(=O)c2ccccc2)cc1)C(C)=O`, with 1.83 µM; and `CC(C)(C)n1nc(-c2ccc(F)cc2)c2c(N)ncnc21`, with 15.4 µM; and `CC(C)(C)c1ccc(Cn2ccc(-c3ccc4c(c3)OCO4)n2)cc1`, with 8.82 µM. With `O=C1Nc2c(Cl)cc(Cl)cc2C1=O`, the AC40 is > 19.5 µM (inactive). The value for `Cn1cnc([N+](=O)[O-])c1S(=O)(=O)Oc1ccc(Cl)cc1` was 1.31 µM.

In the case of `Cc1cc([N+](=O)[O-])c(NC2CCCCC2)c([N+](=O)[O-])c1`, the AC40 was 10.1 µM. Then `COC1=CC(=O)c2c(ccc3ncnc(N)c23)C1=O`, with 10.1 µM; and `COC(=O)C1CCN(C2CC(=O)N(c3cc(C)cc(C)c3)C2=O)CC1` (configuration not stated), with 6.63 µM. The value for `COc1cc2c(cc1OC)C(C)N(C(=O)c1cc3c(=O)oc4ccc(C)cc4c3s1)CC2` (configuration not stated) was > 19.5 µM (inactive); that for `O=C(CSc1ccc(-c2ccccn2)nn1)NC1CCCCC1` was 16.1 µM. For `O=c1c(Cl)c(Cl)cnn1Cc1nnc(-c2ccc(Cl)cc2)o1`, the AC40 is 7.97 µM.

Take `O=C(O)c1ccc(N/N=C/C2=C(N3CCOCC3)C(=C\c3ccccc3)/CC2)cc1`: the AC40 was 5.01 µM. The value for `CCCCC(=O)NC(c1ccc(OC)c(OC)c1)c1ccc2cccnc2c1O` (configuration not stated) was 1 µM. Consider `Cc1ccc(S(=O)(=O)N2[C@@H](c3ccc(Cl)cc3)C(C(=O)O)=CC[C@H]2c2ccc(Cl)c(Cl)c2)cc1`, for which the AC40 was 3.31 µM. The value for `Cc1ccccc1CSCCNC(=O)COc1ccc(Cl)cc1` was 7.18 µM. Turning to `CC(C)c1cc(-c2cc(C(=O)NCc3ccccc3)on2)nc(NCC2CC2)n1`, the AC40 is 7.9 µM. The value for `CC(C)(C)C(=O)C(Cl)C(=O)Nc1ccccc1` (configuration not stated) was 2.17 µM; that for `CCCC(=O)NC(c1ccccc1OC)c1ccc2cccnc2c1O` (configuration not stated) was 1.2 µM; that for `COc1ccccc1CNC(=O)CSc1ccc(-c2ccccn2)nn1` was 10.3 µM. With `Oc1ccc(Cl)cc1CNc1cccc2cccnc12`, the AC40 was 0.156 µM. The value for `Cc1ccc(SCCNC(=S)Nc2ccc(C)c(C)c2)cc1` was 14.2 µM; that for `Cc1cccc(N2CCN(C(=O)c3c(-c4ccccc4)noc3C)CC2)c1C` was 0.414 µM; that for `CC(C)(C)c1cc(CCC(=O)NNC(=S)NC(=O)c2ccccc2)cc(C(C)(C)C)c1O` was 6.31 µM. `CCc1cc(C(N)=O)c(NC(=O)c2ccc(OC)cc2)s1`: the AC40 is 6.02 µM.

Take `COc1cc(OC)c(-c2c3cc(O)c(=O)cc-3oc3cc(O)c(O)cc23)cc1OC`: the AC40 is 1.57 µM. The value for `CC(C)(C)c1ccc(-n2nc(C#N)c(Cl)cc2=O)cc1` was 0.292 µM; that for `Cc1cc([N+](=O)[O-])cc(/C=N/n2c(C)nc3ccccc3c2=O)c1O` was 4.24 µM. On to `COc1cccc(/C=N/NC(=O)c2cc(-c3cccn3C)n[nH]2)c1O`, for which the AC40 was 5.62 µM. The value for `O=C(NNC(=O)c1cc(Cl)ccc1O)c1cccc(S(=O)(=O)N2CCOCC2)c1` was 3.31 µM. Then `Cc1ccc(-c2nn(C(C)(C)C)c3ncnc(N)c23)cc1`, with 9.29 µM; and `CCCOc1ccc(C(=O)NNC(=S)NC(=O)CC)cc1`, with 1.48 µM. Then `COc1ccc2nc(NN=C(C)c3ccccn3)cc(C)c2c1`, with 3.23 µM. Regarding `COc1cccc(-n2nc(C#N)c(Cl)cc2=O)c1`, the AC40 is 2.08 µM. The value for `O=C(NNC(=O)c1cc(Cl)ccc1O)c1ccc(NS(=O)(=O)c2cccs2)cc1` was 5.75 µM; that for `CCOc1ccc(-n2c(O)c(/C=N/NC(=O)C3COc4ccccc4O3)c3ccccc3c2=O)cc1` (configuration not stated) was 2.18 µM; that for `O=C(Oc1ccc(N(C(=O)c2ccncc2)S(=O)(=O)c2ccc(Cl)cc2)cc1)c1ccncc1` was 0.978 µM. The value for `O=C(N/N=C/c1cc(Br)ccc1O)c1ccccc1Cl` was 0.659 µM; that for `O=C(Oc1cccc(NC(=O)c2ccccc2Cl)c1)c1ccc([N+](=O)[O-])cc1` was 14.1 µM; that for `COc1cccc(NC=C2C(=O)OC3(CCCCC3)OC2=O)c1` was 5.08 µM. The value for `CC(C)n1cnc2c(NCc3ccccc3)cc(Cc3ccc(F)cc3)cc21` was 3.4 µM. As for `Cc1ccc(NC(=O)CN(C)C(=O)c2cccnc2Nc2cccc(C(F)(F)F)c2)cc1`, the AC40 is 5.69 µM. The value for `CCNc1nc(N)nc(-c2cc(Cl)ccc2O)n1` was 2.17 µM; that for `Cc1c2cnccc2c(C)c2c1oc1ccccc12` was 2.99 µM; that for `COc1ccc(-c2cc(C(=O)NNC(=S)NC(=O)c3c(-c4ccccc4)noc3C)[nH]n2)cc1` was 2.31 µM. The value for `O=C(NC1=CC(=O)c2ccccc2C1=O)c1ccccc1` was 3.18 µM; that for `N#C/C(=C\c1cccnc1)c1ccc(Br)cc1` was 15.9 µM.
